According to US7968697B2, “Hepatitis C virus non-structural NS3/4A fusion gene” (ChronTech Pharma AB, priority 2005, dated 2011):
“And” between values parts separate entries of the source, which are not always exact repeats. Identical values can stand only once.

Experiments:
[1] = test system: NS3/4A-expressing EL-4 cells; assay: In vivo challenge with NS3/4A-expressing EL-4 lymphoma cells, prophylactic and therapeutic; details: immunized only once; C57BL/6 mice
Experimental: To confirm that inhibition of tumor growth using the NS3/4A-expressing EL-4 cell line is fully dependent on an NS3/4A-specific immune response a control experiment was performed. Groups of ten C57BL/6 mice were either left nonimmunized, or immunized twice with the coNS3/4A plasmid. Two weeks after the last immunization the mice were challenged with an s.c. injection of 10^6 native EL-4 or NS3/4A-expressing EL-4 cells (NS3/4A-EL-4). An NS3/4A-specific immune response was required for protection, since only the immunized mice were protected against growth of the NS3/4A-EL-4 cell line (FIG. 13). Thus, this H-2^b-restricted model behaves similarly to the SP2/0H-2^d restricted model.
The tumor challenge model was then used to evaluate how effective the different immunogens were in priming a protective immunity against growth of NS3/4A-EL-4 tumor cells in vivo. […]
In vivo challenge of immunized mice with the NS3/4A-expressing SP2/0 myeloma or EL-4 lymphoma cell line was performed according to the method described by Encke et al., supra. […] The kinetics of the tumor growth was determined by measuring the tumor size through the skin at days six to 20. […]
To test the therapeutic effect of the vaccines groups of mice were inoculated with the tumor cells as described above. […] The tumor growth was monitored from day 6 to day 20.

rNS3 = assay: EIA antibody titre to rNS3 after immunization with rNS3 with or without ribavirin; format: in vivo, Balb/c mice; details: for Group mean titre (mean ± SD) to rNS3, Week 4 / Group mean titre (mean ± SD) to rNS3, Week 6 / Group mean titre (mean ± SD) to rNS3, Week 8 / Antibody titre to rNS3 at Week 4 / Antibody titre to rNS3 at Week 6 / Antibody titre to rNS3 at Week 8: i.p.; for Endpoint titre of rNS3 IgG at Week 1 / Endpoint titre of rNS3 IgG at Week 2 / Endpoint titre of rNS3 IgG at Week 3 / Antibody titre to rNS3 at Week 4 / Antibody titre to rNS3 at Week 6 / Antibody titre to rNS3 at Week 8: individual mouse
Experimental: In a first set of experiments, groups of three to five Balb/c mice (BK Universal, Uppsala, Sweden) were immunized i.p or s.c. (e.g., at the base of the tail) with 10 μg or 100 μg of recombinant hepatitis C virus non-structural 3 (rNS3) protein. […] Mice were injected with a total volume of 100 μl per injection.
At two and four weeks following i.p. immunization, all mice were bled by retro-orbital sampling. Serum samples were collected and analyzed for the presence of antibodies to rNS3. To determine the antibody titer, an enzyme immunoassay (EIA) was performed. (See e.g., Hultgren et al., J Gen Virol. 79:2381-91 (1998) and Hultgren et al., Clin. Diagn. Lab. Immunol. 4:630-632 (1997)). The antibody levels were recorded as the highest serum dilution giving an optical density at 405 nm more than twice that of non-immunized mice.
At four, six and eight weeks the mice were bled and serum was separated and frozen. After completion of the study, sera were tested for the levels of antibodies to recombinant NS3, as described above. Mean antibody levels to rNS3 were compared between the groups using Student's t-test (parametric analysis) or Mann-Whitney (non-parametric analysis) and the software package StatView 4.5 (Abacus Concepts, Berkely, Calif.). […] The values given represent end point titres to recombinant rNS3.
The levels of antibody to the antigen were then determined by EIA.
A second set of experiments was also performed. […] The mice were bled at week six and rNS3-specific IgG levels were determined by EIA as described previously.

NS3 = assay: NS3-specific IgG subclass EIA after rNS3 with or without ribavirin; format: in vivo, mice; details: 0.1 or 1.0 mg ribavirin with 10 μg rNS3 i.p. at weeks 0 and 4; bled at week six
Experimental: The mice were bled at week six and NS3-specific IgG subclasses were determined by EIA as described previously.

CD4+ T cell = assay: In vitro recall assay, lymph node CD4+ T cell proliferation ([3H] thymidine); format: cell-based, mice; details: 100 μg rNS3 mixed with 1 mg ribavirin s.c.; ten days post-immunization; 96 h of culture
Experimental: This assay can be used with any ribavirin derivative or combinations of ribavirin derivatives to determine the extent that a particular vaccine formulation modulates a cellular immune response. […] The mice were sacrificed ten days post-immunization and their lymph nodes were harvested and drained. In vitro recall assays were then performed. (See e.g., Hultgren et al., J Gen Virol. 79:2381-91 (1998) and Hultgren et al., Clin. Diagn. Lab. Immunol. 4:630-632 (1997)). The amount of CD4^+ T cell proliferation was determined at 96 h of culture by the incorporation of [^3H] thymidine.

HBsAg = assay: EIA antibody titer to HBsAg after Engerix vaccine with or without ribavirin; format: in vivo, mice; details: 1 mg ribavirin mixed with 2 μg Engerix i.p., booster week four, bled week six
Excerpt: (Engerix, SKB). […] A booster containing the same mixture was given on week four and all mice were bled on week six.

[2] = 0.1 mg ribavirin mixed with 20 μg rNS3
[3] = 1.0 mg ribavirin mixed with 20 μg rNS3
[4] = 10.0 mg ribavirin mixed with 20 μg rNS3
[5] = 10 mg ribavirin with 10 μg rNS3
[6] = 10 mg ribavirin with 50 μg rNS3

For “GAVQNEVTL (Artificial Peptide, NS3/4A H-2D Binding Peptide) [NS3-derived CTL peptide, ID; NO.: 37]”, which “protection against growth of NS3/4A-EL-4 tumors” value [1] is on record?
Its value is “not protected”.

For `NC(=O)c1ncn([C@@H]2O[C@H](CO)[C@@H](O)[C@H]2O)n1` [ribavirin, 1-β-D-ribofuranosyl-1,2,4-triazole-3-carboxamide], which “Mean endpoint titre of rNS3 IgG at Week 1” value (rNS3; [2]) is on record?
The value was 1110 ± 1484.

And the “Mean endpoint titre of rNS3 IgG at Week 2” value (rNS3; [2])?
The value was 5060 ± 6921.

And the “antibody titer compared with formulations composed of only rNS3” value (rNS3; 1 mg of ribavirin and either 10 μg or 100 μg of rNS3, two weeks post-immunization)?
Its value is “significantly greater antibody titer”.

And the “Mean endpoint titre of rNS3 IgG at Week 1” value (rNS3; [3])?
Its value is 360.

What about the “Mean endpoint titre of rNS3 IgG at Week 3” value (rNS3; [3]) of the same compound?
The value was 5760 ± 6235.

What about the “Group mean titre (mean ± SD) to rNS3, Week 4” value (rNS3; 1 mg ribavirin with 10 μg rNS3) of the same compound?
Its value is 252 ± 107.

And the “Group mean titre (mean ± SD) to rNS3, Week 6” value (rNS3; 1 mg ribavirin with 10 μg rNS3)?
The value was 28071 ± 16195.

And the “Group mean titre (mean ± SD) to rNS3, Week 8” value (rNS3; 1 mg ribavirin with 10 μg rNS3)?
The value was 36642 ± 67565.

And the “Group mean titre (mean ± SD) to rNS3, Week 4” value (rNS3; 1 mg ribavirin with 50 μg rNS3)?
Its value is 150 ± 124.

What about the “Group mean titre (mean ± SD) to rNS3, Week 6” value (rNS3; 1 mg ribavirin with 50 μg rNS3) of the same compound?
Its value is 52500 ± 55549.

What about the “Group mean titre (mean ± SD) to rNS3, Week 8” value (rNS3; 1 mg ribavirin with 50 μg rNS3) of the same compound?
The value was 37500 ± 62105.

And the “Group mean titre (mean ± SD) to rNS3, Week 4” value (rNS3; 3 mg ribavirin with 10 μg rNS3)?
The value was 180 ± 128.

What about the “Group mean titre (mean ± SD) to rNS3, Week 6” value (rNS3; 3 mg ribavirin with 10 μg rNS3) of the same compound?
The value was 30000 ± 13887.

What about the “Group mean titre (mean ± SD) to rNS3, Week 8” value (rNS3; 3 mg ribavirin with 10 μg rNS3) of the same compound?
The value was 22500 ± 34637.

And the “Group mean titre (mean ± SD) to rNS3, Week 4” value (rNS3; 3 mg ribavirin with 50 μg rNS3)?
Its value is 387 ± 513.

What about the “Group mean titre (mean ± SD) to rNS3, Week 6” value (rNS3; 3 mg ribavirin with 50 μg rNS3) of the same compound?
The value was 30000 ± 13887.

What about the “Mean endpoint titre of rNS3 IgG at Week 1” value (rNS3; [4]) of the same compound?
Its value is 360.

What about the “Mean endpoint titre of rNS3 IgG at Week 2” value (rNS3; [4]) of the same compound?
The value was 5760 ± 6235.

And the “Mean endpoint titre of rNS3 IgG at Week 3” value (rNS3; [4])?
Its value is 30960 ± 40888.

What about the “Group mean titre (mean ± SD) to rNS3, Week 4” value (rNS3; [5]) of the same compound?
Its value is 220 ± 139.

What about the “Group mean titre (mean ± SD) to rNS3, Week 4” value (rNS3; [6]) of the same compound?
The value was 140 ± 124.

What about the “Group mean titre (mean ± SD) to rNS3, Week 6” value (rNS3; [6]) of the same compound?
The value was 10929 ± 11928.

And the “Group mean titre (mean ± SD) to rNS3, Week 8” value (rNS3; [6])?
Its value is 15214 ± 15380.

And the “adjuvant effect on antibody levels, kinetics” value (rNS3; higher doses (1-10 mg) of ribavirin with 20 μg rNS3)?
The value was “enhance antibody levels at week three”.

And the “Endpoint titre of rNS3 IgG at Week 1” value (rNS3; [2])?
The value was 2160 and 60 and <60.

And the “Endpoint titre of rNS3 IgG at Week 2” value (rNS3; [2])?
Its value is 12960 and 60 and 2160.

What about the “Endpoint titre of rNS3 IgG at Week 3” value (rNS3; [2]) of the same compound?
The value was 2160 (2×) and 60.

What about the “Endpoint titre of rNS3 IgG at Week 1” value (rNS3; [3]) of the same compound?
The value was <60 (2×) and 360.

What about the “Endpoint titre of rNS3 IgG at Week 2” value (rNS3; [3]) of the same compound?
The value was 60 and 2160 (2×).

What about the “Endpoint titre of rNS3 IgG at Week 3” value (rNS3; [3]) of the same compound?
Its value is 12960 and 2160 (2×).

What about the “Antibody titre to rNS3 at Week 4” value (rNS3; 1 mg ribavirin with 10 μg rNS3) of the same compound?
The value was 300 (4×) and <60 (3×) and 60.

What about the “Antibody titre to rNS3 at Week 6” value (rNS3; 1 mg ribavirin with 10 μg rNS3) of the same compound?
The value was 37500 (5×) and 1500 and 7500.

What about the “Antibody titre to rNS3 at Week 8” value (rNS3; 1 mg ribavirin with 10 μg rNS3) of the same compound?
Its value is 37500 and 1500 and 187500 and 7500 (4×).

And the “Antibody titre to rNS3 at Week 4” value (rNS3; 1 mg ribavirin with 50 μg rNS3)?
The value was 60 (5×) and 300 (3×).

What about the “Antibody titre to rNS3 at Week 6” value (rNS3; 1 mg ribavirin with 50 μg rNS3) of the same compound?
Its value is 7500 and 37500 (6×) and 187500.

What about the “Antibody titre to rNS3 at Week 8” value (rNS3; 1 mg ribavirin with 50 μg rNS3) of the same compound?
Its value is 7500 (5×) and 187500 and 37500 (2×).

What about the “Antibody titre to rNS3 at Week 4” value (rNS3; 3 mg ribavirin with 10 μg rNS3) of the same compound?
Its value is 60 (4×) and 300 (4×).

What about the “Antibody titre to rNS3 at Week 6” value (rNS3; 3 mg ribavirin with 10 μg rNS3) of the same compound?
The value was 37500 (6×) and 7500 (2×).

And the “Antibody titre to rNS3 at Week 8” value (rNS3; 3 mg ribavirin with 10 μg rNS3)?
The value was 7500 (4×) and 37500 (4×).

What about the “Antibody titre to rNS3 at Week 4” value (rNS3; 3 mg ribavirin with 50 μg rNS3) of the same compound?
Its value is 60 (3×) and 300 (3×) and 1500.

What about the “Antibody titre to rNS3 at Week 6” value (rNS3; 3 mg ribavirin with 50 μg rNS3) of the same compound?
Its value is 37500 (6×) and 7500 (2×).

And the “Antibody titre to rNS3 at Week 8” value (rNS3; 3 mg ribavirin with 50 μg rNS3)?
Its value is 7500 (5×) and 37500 (3×).

And the “Endpoint titre of rNS3 IgG at Week 1” value (rNS3; [4])?
The value was 360 (2×) and <60.

What about the “Endpoint titre of rNS3 IgG at Week 2” value (rNS3; [4]) of the same compound?
Its value is 12960 and 2160 (2×).

And the “Endpoint titre of rNS3 IgG at Week 3” value (rNS3; [4])?
Its value is 77760 and 12960 and 2160.

What about the “Antibody titre to rNS3 at Week 4” value (rNS3; [5]) of the same compound?
The value was 300 (2×) and <60 (5×) and 60.

What about the “Antibody titre to rNS3 at Week 6” value (rNS3; [5]) of the same compound?
The value was 37500 (3×) and 300 (2×) and 7500 (2×).

And the “Antibody titre to rNS3 at Week 8” value (rNS3; [5])?
The value was 37500 (3×) and 300 (2×) and 7500 (2×).

And the “Antibody titre to rNS3 at Week 4” value (rNS3; [6])?
Its value is 300 (2×) and 60 (5×).

And the “Antibody titre to rNS3 at Week 6” value (rNS3; [6])?
Its value is 7500 (5×) and 37500 (2×) and 1500.

And the “Antibody titre to rNS3 at Week 8” value (rNS3; [6])?
Its value is 7500 (5×) and 37500 (2×) and 1500.

What about the “adjuvant effect on antibody levels, kinetics” value (rNS3; low doses (<1 mg) of ribavirin with 20 μg rNS3) of the same compound?
Its value is “enhance antibody levels at week one but not at week three”.

What about the “effect on the NS3-specific IgG subclass response” value (NS3) of the same compound?
Its value is “does not change the IgG subclass response”.

What about the “T cell proliferative response compared with 100 μg rNS3 in PBS” value (CD4+ T cell) of the same compound?
The value was “much greater T cell proliferative response”.

And the “effect on the antibody response to HBsAg vaccine” value (HBsAg)?
The value was “enhanced the response”.
